A word on the inhibition: it is the relative decrease from the control value, in per cent.

The source made the active and inactive calls. No cut-off for these calls is given here.

Drawing on ChEMBL document CHEMBL5696442, “Discovery of type II inhibitors of TGFβ-activated kinase 1 (TAK1) and mitogen-activated protein kinase kinase kinase kinase 2 (MAP4K2)” (J Med Chem, 2015), this text covers inhibition, residual activity and % of control for three molecules.

Assay [1] has as its target T1, Dual specificity mitogen-activated protein kinase kinase 7 (Homo sapiens) (UniProt O14733).
T1 sequence (whole entry): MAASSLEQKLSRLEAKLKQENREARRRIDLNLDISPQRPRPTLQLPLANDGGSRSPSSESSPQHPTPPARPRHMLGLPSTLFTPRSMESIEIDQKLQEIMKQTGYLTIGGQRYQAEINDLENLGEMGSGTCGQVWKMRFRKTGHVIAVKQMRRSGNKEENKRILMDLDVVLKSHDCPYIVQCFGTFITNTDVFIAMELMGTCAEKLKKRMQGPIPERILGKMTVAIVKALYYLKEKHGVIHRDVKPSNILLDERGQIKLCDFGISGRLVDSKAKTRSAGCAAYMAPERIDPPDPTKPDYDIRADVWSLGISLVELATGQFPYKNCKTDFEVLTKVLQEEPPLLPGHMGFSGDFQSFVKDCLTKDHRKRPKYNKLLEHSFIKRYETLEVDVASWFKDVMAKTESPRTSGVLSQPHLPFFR
As to the kind of experiment: Inhibition of MKK7 (unknown origin) at 1 uM by Ambit Kinomescan binding assay relative to control.

The target in assay [2] is Mitogen-activated protein kinase kinase kinase 11 (Homo sapiens) (UniProt Q16584). Kind of assay: Inhibition of MLK3 (unknown origin) at 1 uM by Ambit Kinomescan binding assay relative to control.
The target of assay [3] is Mitogen-activated protein kinase kinase kinase kinase 1 (Homo sapiens) (UniProt Q92918). Kind of assay: Inhibition of HPK1 (unknown origin) at 1 uM by Ambit Kinomescan binding assay relative to control; values are per cent of control.
Sequence of Mitogen-activated protein kinase kinase kinase kinase 1 (Homo sapiens) (Q92918 whole entry, looked up): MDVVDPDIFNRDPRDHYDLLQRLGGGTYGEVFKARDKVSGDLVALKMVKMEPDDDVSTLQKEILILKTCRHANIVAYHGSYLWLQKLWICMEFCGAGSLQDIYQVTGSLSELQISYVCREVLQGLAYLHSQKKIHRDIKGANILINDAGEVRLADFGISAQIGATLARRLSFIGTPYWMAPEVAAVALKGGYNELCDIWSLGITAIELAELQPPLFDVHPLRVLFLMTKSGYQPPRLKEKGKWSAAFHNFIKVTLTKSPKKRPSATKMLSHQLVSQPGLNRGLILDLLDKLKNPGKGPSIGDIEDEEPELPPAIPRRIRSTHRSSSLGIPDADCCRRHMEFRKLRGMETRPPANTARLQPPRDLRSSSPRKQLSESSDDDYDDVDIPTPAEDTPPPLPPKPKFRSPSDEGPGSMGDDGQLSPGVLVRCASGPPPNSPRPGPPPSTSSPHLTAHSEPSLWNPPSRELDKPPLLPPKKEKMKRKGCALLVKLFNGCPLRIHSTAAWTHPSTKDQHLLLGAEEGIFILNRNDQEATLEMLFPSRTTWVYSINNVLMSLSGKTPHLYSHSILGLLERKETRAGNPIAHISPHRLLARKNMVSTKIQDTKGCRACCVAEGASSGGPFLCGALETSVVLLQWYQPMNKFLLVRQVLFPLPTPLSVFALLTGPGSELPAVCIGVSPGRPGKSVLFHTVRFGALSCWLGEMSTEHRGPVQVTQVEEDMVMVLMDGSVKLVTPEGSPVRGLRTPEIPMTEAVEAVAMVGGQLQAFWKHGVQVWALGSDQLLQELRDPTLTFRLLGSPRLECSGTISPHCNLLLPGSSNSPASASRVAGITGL
Assay [4] concerns the target Cyclin-dependent kinase-like 2 (Homo sapiens) (UniProt Q92772). As to the kind of experiment: Inhibition of CDKL2 (unknown origin) at 1 uM by Ambit Kinomescan binding assay relative to control; values are per cent of control.
The target of assay [5] is Calcium/calmodulin-dependent protein kinase kinase 1 (Homo sapiens) (UniProt Q8N5S9). As to the kind of experiment: Inhibition of CAMKK1 (unknown origin) at 10 uM by Ambit Kinomescan binding assay.
Sequence of Calcium/calmodulin-dependent protein kinase kinase 1 (Homo sapiens) (Q8N5S9 whole entry, looked up): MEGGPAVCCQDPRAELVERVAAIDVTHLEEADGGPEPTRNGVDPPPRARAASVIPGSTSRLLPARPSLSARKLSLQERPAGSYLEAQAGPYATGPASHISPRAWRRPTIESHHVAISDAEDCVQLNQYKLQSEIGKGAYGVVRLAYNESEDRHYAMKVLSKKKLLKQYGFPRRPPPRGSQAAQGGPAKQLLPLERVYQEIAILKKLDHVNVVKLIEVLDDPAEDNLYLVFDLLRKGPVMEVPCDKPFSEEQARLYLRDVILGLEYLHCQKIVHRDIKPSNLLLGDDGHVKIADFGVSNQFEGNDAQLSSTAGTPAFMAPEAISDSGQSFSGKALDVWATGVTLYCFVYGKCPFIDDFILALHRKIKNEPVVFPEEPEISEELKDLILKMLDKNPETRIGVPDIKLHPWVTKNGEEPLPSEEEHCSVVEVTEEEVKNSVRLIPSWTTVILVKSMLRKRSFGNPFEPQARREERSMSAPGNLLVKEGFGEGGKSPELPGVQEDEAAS
Assay [6] deals with Cyclin-dependent kinase 18 (Homo sapiens) (UniProt Q07002). Kind of assay: Inhibition of PCTK3 (unknown origin) at 10 uM by Ambit Kinomescan binding assay relative to control.
Sequence of Cyclin-dependent kinase 18 (Homo sapiens) (Q07002 whole entry): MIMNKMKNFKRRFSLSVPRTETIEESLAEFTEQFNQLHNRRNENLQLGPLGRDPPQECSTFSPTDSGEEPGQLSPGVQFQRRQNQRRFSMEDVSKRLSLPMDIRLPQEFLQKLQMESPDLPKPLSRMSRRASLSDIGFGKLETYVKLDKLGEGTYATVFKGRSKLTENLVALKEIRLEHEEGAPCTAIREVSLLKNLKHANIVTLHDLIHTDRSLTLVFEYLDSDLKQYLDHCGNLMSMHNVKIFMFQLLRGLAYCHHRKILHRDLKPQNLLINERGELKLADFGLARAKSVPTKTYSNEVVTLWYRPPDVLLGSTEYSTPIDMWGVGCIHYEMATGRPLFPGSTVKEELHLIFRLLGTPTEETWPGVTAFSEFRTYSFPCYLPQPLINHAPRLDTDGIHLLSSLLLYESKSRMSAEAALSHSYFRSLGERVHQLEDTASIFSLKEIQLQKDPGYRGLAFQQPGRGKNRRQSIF
The target in assay [7] is T2, Serine/threonine-protein kinase ULK1 (Homo sapiens) (UniProt O75385).
T2 sequence (whole entry): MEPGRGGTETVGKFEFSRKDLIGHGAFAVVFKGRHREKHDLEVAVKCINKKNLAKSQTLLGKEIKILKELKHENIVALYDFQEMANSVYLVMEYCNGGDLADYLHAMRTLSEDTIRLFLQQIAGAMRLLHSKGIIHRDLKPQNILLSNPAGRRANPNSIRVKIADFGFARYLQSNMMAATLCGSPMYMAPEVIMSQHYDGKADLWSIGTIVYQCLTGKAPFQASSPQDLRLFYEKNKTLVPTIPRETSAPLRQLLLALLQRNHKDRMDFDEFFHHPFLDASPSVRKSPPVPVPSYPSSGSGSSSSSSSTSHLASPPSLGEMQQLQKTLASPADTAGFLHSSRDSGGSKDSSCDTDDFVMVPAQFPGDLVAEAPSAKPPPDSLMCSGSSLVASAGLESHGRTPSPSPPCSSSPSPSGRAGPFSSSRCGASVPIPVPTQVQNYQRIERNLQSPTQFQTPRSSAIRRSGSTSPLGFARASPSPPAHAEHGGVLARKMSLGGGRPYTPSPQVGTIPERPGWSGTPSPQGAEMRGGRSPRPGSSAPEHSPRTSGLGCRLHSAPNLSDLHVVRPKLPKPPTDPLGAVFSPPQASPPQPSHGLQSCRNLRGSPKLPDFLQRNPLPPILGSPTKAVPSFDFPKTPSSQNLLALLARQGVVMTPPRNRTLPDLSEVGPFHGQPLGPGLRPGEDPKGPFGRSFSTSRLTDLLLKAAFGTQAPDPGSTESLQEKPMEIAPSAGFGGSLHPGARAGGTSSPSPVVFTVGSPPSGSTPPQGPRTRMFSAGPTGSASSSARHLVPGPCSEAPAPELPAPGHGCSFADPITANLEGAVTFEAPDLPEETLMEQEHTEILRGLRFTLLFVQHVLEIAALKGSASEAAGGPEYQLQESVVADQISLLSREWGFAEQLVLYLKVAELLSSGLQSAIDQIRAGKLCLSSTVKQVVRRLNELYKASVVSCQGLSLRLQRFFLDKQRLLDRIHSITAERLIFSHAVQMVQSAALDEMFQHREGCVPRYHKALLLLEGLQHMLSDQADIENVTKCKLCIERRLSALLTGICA
Kind of assay: Inhibition of ULK1 (unknown origin) at 10 uM by Ambit Kinomescan binding assay.

Assay [8] concerns the target Tyrosine-protein kinase CSK (Homo sapiens, UniProt P41240). As to the kind of experiment: Inhibition of CSK ACT labeling site harbouring VSDFGLTKEASSTQDTGK in human A-375 cells at 5 uM by KiNativ Profiling analysis relative to control. The format is cell-based.
The target in assay [9] is Mitogen-activated protein kinase kinase kinase kinase 1 (Homo sapiens) (UniProt Q92918). As to the kind of experiment: Inhibition of HPK1 (unknown origin) at 10 uM by Ambit Kinomescan binding assay relative to control; values are per cent of control.
The subject of assay [10] is Proto-oncogene tyrosine-protein kinase receptor Ret (Homo sapiens), P07949 [V804M]. Kind of assay: Inhibition of RET V804M mutant (unknown origin) at 10 uM by Ambit Kinomescan binding assay relative to control; values are per cent of control.
Assay [11] deals with 5'-AMP-activated protein kinase catalytic subunit alpha-2 (Homo sapiens) (UniProt P54646). As to the kind of experiment: Inhibition of AMPKa2 Lys1 labeling site in human Huh-7 cell lysate at 1 uM by KiNativ Profiling analysis relative to control. The format is subcellular.
Sequence of 5'-AMP-activated protein kinase catalytic subunit alpha-2 (Homo sapiens) (P54646 whole entry, looked up): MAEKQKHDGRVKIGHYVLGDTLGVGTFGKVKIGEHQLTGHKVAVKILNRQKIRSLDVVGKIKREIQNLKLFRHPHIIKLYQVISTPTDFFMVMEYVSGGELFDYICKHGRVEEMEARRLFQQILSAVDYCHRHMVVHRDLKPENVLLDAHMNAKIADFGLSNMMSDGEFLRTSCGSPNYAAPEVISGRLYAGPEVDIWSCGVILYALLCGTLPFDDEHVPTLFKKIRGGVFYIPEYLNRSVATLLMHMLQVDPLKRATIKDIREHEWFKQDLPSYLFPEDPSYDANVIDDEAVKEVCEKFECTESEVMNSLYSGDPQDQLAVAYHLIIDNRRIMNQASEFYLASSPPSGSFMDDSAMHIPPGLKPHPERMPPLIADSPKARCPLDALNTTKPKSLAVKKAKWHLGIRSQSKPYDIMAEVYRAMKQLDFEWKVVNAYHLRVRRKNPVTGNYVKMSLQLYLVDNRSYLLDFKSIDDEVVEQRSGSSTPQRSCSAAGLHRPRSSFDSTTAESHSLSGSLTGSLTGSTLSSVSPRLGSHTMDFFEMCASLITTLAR
Assay [12] addresses T3, Aurora kinase A (Homo sapiens) (UniProt O14965).
T3 sequence (whole entry): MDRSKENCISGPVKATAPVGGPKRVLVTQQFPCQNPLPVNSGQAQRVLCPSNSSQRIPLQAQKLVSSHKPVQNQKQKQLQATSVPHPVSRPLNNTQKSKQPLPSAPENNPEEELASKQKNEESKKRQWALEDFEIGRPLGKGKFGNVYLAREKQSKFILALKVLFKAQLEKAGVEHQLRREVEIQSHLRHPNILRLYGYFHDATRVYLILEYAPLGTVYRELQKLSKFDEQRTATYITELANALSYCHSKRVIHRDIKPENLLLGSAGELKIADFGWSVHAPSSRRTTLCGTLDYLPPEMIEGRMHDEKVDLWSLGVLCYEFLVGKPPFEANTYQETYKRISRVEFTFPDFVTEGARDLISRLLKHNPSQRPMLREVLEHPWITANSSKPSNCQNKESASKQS
Kind of assay: Inhibition of AurA ATP labeling site in human Huh-7 cell lysate at 1 uM by KiNativ Profiling analysis relative to control. The format is subcellular.

The target in assay [13] is Cyclin-dependent kinase 12 (Homo sapiens) (UniProt Q9NYV4). Kind of assay: Inhibition of CRK7 Lys2 labeling site in human Huh-7 cells at 1 uM by KiNativ Profiling analysis relative to control. The class given is cell-based.
Sequence of Cyclin-dependent kinase 12 (Homo sapiens) (Q9NYV4 whole entry, looked up): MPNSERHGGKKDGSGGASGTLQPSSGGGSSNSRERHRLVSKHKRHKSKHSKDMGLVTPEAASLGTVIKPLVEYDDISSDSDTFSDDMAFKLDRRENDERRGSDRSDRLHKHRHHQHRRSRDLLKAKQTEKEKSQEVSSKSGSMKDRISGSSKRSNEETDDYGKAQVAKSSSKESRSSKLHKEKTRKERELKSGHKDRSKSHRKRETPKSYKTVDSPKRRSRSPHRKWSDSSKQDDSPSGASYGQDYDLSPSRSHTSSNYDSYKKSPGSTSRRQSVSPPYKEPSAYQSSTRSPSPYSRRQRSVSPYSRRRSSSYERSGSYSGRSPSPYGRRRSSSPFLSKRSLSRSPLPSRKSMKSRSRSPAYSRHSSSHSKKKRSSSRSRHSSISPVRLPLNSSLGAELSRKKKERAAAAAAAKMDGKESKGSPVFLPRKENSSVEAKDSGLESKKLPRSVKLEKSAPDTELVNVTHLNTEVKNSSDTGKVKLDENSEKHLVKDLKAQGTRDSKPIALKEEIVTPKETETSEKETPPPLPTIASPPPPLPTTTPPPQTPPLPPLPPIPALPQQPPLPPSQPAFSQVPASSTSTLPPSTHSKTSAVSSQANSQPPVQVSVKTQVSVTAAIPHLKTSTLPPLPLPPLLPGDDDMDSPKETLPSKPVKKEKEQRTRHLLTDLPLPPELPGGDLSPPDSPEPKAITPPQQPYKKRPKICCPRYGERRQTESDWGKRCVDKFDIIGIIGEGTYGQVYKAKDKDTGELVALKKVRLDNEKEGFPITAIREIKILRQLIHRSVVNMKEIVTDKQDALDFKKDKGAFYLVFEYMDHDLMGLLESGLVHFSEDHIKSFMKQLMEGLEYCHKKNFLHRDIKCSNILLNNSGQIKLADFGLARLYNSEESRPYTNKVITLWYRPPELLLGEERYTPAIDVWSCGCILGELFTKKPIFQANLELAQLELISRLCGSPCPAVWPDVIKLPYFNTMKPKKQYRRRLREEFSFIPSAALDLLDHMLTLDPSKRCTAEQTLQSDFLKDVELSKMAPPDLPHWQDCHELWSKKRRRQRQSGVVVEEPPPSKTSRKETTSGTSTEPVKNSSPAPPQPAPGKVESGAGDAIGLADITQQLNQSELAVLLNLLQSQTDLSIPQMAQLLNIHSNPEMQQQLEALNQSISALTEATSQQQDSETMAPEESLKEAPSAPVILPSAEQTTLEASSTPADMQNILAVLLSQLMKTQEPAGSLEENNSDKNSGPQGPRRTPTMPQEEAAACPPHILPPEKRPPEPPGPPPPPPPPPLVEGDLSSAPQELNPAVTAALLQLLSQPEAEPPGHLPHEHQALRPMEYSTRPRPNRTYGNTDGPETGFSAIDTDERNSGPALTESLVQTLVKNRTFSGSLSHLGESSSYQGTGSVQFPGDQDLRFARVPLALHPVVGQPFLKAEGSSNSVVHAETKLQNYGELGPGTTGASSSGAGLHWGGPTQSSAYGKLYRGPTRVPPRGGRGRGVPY

Sequence of Proto-oncogene tyrosine-protein kinase receptor Ret (Homo sapiens), P07949 [V804M] (P07949 whole entry V804M): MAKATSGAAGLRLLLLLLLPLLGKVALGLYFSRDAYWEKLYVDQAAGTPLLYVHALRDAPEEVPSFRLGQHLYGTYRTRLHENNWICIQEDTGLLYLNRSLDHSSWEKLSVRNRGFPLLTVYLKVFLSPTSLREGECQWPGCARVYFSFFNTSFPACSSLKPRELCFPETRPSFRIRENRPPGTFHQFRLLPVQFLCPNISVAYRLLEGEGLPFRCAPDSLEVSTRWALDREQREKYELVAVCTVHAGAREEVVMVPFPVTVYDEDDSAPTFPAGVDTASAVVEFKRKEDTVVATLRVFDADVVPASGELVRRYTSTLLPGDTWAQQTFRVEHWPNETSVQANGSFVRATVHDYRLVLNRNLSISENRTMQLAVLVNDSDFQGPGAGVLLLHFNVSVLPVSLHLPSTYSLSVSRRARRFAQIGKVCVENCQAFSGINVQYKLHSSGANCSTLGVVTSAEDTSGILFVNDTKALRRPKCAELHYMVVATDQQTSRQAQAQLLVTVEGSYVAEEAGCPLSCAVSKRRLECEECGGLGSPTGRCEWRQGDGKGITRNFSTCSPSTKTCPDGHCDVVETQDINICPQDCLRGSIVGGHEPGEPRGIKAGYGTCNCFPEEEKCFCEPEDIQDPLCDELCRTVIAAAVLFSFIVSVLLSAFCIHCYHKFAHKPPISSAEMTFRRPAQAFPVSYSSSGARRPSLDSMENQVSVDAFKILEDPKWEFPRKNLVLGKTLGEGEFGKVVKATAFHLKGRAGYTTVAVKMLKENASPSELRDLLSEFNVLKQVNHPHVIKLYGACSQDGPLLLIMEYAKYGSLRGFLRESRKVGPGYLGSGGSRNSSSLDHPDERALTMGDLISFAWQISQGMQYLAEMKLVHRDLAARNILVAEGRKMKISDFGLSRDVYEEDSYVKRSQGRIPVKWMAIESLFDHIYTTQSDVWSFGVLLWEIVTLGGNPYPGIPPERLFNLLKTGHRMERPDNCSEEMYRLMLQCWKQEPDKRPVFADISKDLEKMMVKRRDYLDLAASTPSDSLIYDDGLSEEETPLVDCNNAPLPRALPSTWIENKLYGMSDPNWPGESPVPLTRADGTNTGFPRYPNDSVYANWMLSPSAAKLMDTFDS

As for `CCN1CCN(Cc2ccc(NC(=O)c3ccc(C)c(/C=C/c4cnc5[nH]ccc5c4OC)c3)cc2C(F)(F)F)CC1`, the inhibition in assay [1] came out at 39%; in [2], 23%. Also, the results for the residual activity in assay [3] and in assay [4] were 0.55% and 4.2%, respectively.

`CCN1CCN(Cc2ccc(NC(=O)c3ccc(C)c(Oc4ccnc5[nH]ccc45)c3)cc2C(F)(F)F)CC1`: the inhibition entry in assay [5] and in assay [7] was “inactive” throughout. The inhibition in assay [6] amounted to 1.8%; in assay [8] it was 79%. Also, the % of control in [9] is 1.6%. In [10], this molecule came in with a residual activity of 1%.

`CNc1cc(Oc2cc(C(=O)Nc3cc(N4CCN(C)CC4)cc(C(F)(F)F)c3)ccc2C)ncn1`: the inhibition in assay [11] stood at 8.7%; in assay [12], 2.5%; in assay [13], 40.3%.
